Measured values published in US20230022745A1, “Methods for Labeling a Population of RNA Molecules” (priority 2013, published 2023).
Entries after “also recorded” stand apart in the source; their conditions may differ.

Legend:
Assay type in all cases: biochemical
[1] = tested on: Vaccinia Capping Enzyme (VCE)
[2] = tested on: Vaccinia Capping Enzyme (VCE); remark: listed apart in the source
[3] = tested on: 3′ DTB-GTP capped 25mer T7 transcript; conditions: 30 minutes at 37° C. in 1× Thermopol Buffer
[4] = tested on: Cap0 or Cap1 25 mer transcript; conditions: 5-135 ng protein, 10 minutes at 30° C.

3′-DBT-TEG-guanosine 5′ triphosphate [3′ DBT-TEG-GTP]
capping of 5′ diphosphate RNA by VCE [1]: substrate for capping | capping of 5′ triphosphorylated RNA by VCE [1]: effectively caps | recovery of transcript after streptavidin binding and biotin elution [2]: selectively bound to the streptavidin beads and eluted with 10 mM biotin; also recorded: recovered after binding to streptavidin

Nc1nc2c(ncn2[C@@H]2O[C@H](COP(=O)(O)OP(=O)(O)OP(=O)(O)O)[C@@H](O)[C@H]2O)c(=O)[nH]1 [GTP, reference compound]
recovery of transcript after streptavidin binding and biotin elution [2]: little to no P^32

2′-DBT-TEG-guanosine 5′ triphosphate [2′ DBT-TEG-GTP]
recovery of transcript after streptavidin binding and biotin elution [2]: little to no P^32; also recorded: no better than control GTP for recovery

[N-]=[N+]=N[C@H]1C[C@H](n2cnc3c(=O)[nH]c(N)nc32)O[C@@H]1COP(=O)(O)OP(=O)(O)OP(=O)(O)O [3′-azido-GTP, 3′-Azido-2′,3′ ddGTP, reference compound]
capping of 5′ triphosphorylated RNA by VCE [1]: can be capped

C#CCO[C@H]1[C@@H](O)[C@H](n2cnc3c(=O)[nH]c(N)nc32)O[C@@H]1COP(=O)(O)OP(=O)(O)OP(=O)(O)O [3′ propargyl-GTP, 3′(O-Propargyl) Guanosine 5′ Triphosphate]
capping of 5′ triphosphorylated RNA by VCE [1]: efficiently incorporated as a modified cap

B1: RppH (protein, UniProt P0A776 1-176, looked up)
RNA pyrophosphohydrolase: MIDDDGYRPNVGIVICNRQGQVMWARRFGQHSWQFPQGGINPGESAEQAMYRELFEEVGLSRKDVRILASTRNWLRYKLPKRLVRWDTKPVCIGQKQKWFLLQLVSGDAEINMQTSSTPEFDGWRWVSYWYPVRQVVSFKRDVYRRVMKEFASVVMSLQENTPKPQNASAYRRKRG
decapping of DTB-GTP-capped RNA [3]: effectively decaps

B2: S. pombe HNT3 protein (protein, UniProt O74859 1-232, looked up)
Aprataxin-like protein: MSVHKTNDAFKVLMNSAKEPIVEDIPKKYRKQSFRDNLKVYIESPESYKNVIYYDDDVVLVRDMFPKSKMHLLLMTRDPHLTHVHPLEIMMKHRSLVEKLVSYVQGDLSGLIFDEARNCLSQQLTNEALCNYIKVGFHAGPSMNNLHLHIMTLDHVSPSLKNSAHYISFTSPFFVKIDTPTSNLPTRGTLTSLFQEDLKCWRCGETFGRHFTKLKAHLQEEYDDWLDKSVSM
decapping of capped RNA [4]: can decap RNA
